One assay addresses T1, KRASG12D (Homo sapiens, UniProt P01116, G12D).
T1 construct: made in house; host or cells: E. coli BL21 (DE3)
In words: Bio-Biochem-PPI-HTRF Ras-SOS1 interaction assay (KRAS G12D). Format: biochemical. Conditions: 5 nM. As for the experimental part: (§1) The assay buffer can contain −5 mM HEPES pH 7.4, ˜150 mM NaCl, ˜ 1 mM DTT, 0.05% BSA and 0.0025% (v/v) Igepal. A Ras working solution is prepared in an assay buffer containing typically a suitable amount of the protein construct (e.g., GST-tagged K-Ras mutant) and the FRET donor (e.g., antiGST-Eu(K) from Cisbio, France). A SOS1 working solution is prepared in an assay buffer containing suitable amount of the protein construct (e.g., His-hSOS1) and the FRET acceptor (e.g., anti-6His-XL665 from Cisbio, France). A suitable amount of the protein construct will depend on the range of activity or range of IC50 values being detected or under investigation. For detecting IC50 within a range of 500 nM, the protein constructs of the same range of molarity can be utilized. […] A fixed volume of DMSO with or without test compound is transferred into a 384-well plate. Ras working solution is added to all wells of the test plate. SOS1 working solution is added to all wells except for those that are subsequently filled the inhibitor control solution. Upon incubation for about 10 minutes or longer, the fluorescence is measured with a M1000Pro plate reader (Tecan) using HTRF detection (excitation 337 nm, emission 1:620 nm, emission 2: 665 nm). Compounds are tested in duplicates at different concentrations (for example, 10 μM, 2.5 μM, 0.63 μM, 0.16 μM, 0.04 μM, 0.01 μM test compound). The ratiometric data (i.e., emission 2 divided by emission 1) is used to calculate IC50 values against Ras using GraphPad Prism (GraphPad software). Following this general procedure, samples were tested with or without a subject compound disclosed herein including compounds exemplified in Table 1 to assess their abilities to inhibit a mutant K-Ras relative to another mutant K-Ras or wildtype K-Ras. Signaling output measured in terms of IC50 values can be obtained, a ratio of IC50 against one mutant relative to another mutant can be calculated. For instance, a selective reduction of K-Ras G12D signaling output can be evidenced by a ratio greater than one. In particular, a selective reduction of K-Ras G12D signaling relative to K-Ras WT signaling is evidenced as the ratio of IC50 (against K-Ras WT) to IC50 (against K-Ras G12D) is greater than 1.

Another assay concerns the target T2, KRASwt (Homo sapiens, UniProt P01116).
T2 construct: made in house; host or cells: E. coli BL21 (DE3)
Kind of assay: Bio-Biochem-PPI-HTRF Ras-SOS1 interaction assay (KRAS wt). Conditions: 5 nM. The assay is classed as biochemical. The method, then:
as §1

Each structure is given as a SMILES string.

T1 sequence (P01116 1-188 isoform P01116-2 G12D): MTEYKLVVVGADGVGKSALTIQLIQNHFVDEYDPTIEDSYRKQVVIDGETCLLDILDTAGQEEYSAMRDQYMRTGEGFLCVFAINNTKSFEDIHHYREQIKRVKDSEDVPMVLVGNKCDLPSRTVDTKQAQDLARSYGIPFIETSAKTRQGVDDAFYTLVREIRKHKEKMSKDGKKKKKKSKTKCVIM
T2 sequence (P01116 1-188 isoform P01116-2): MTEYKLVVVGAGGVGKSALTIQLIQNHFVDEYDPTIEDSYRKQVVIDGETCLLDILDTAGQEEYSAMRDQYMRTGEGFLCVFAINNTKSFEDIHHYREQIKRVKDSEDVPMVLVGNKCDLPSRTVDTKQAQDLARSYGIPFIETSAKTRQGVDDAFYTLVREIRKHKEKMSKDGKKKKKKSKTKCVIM

With `C[C@H](Oc1nc(N2CCCC3(CN(C(=O)[C@@H]4C[C@H]4F)C3)C2)c2cc(Cl)c(-c3ccc(F)c4sc(N)c(C#N)c34)c(F)c2n1)[C@@H]1CCCN1C` [compound 126, 2-amino-4-(6-chloro-8-fluoro-4-(2-((1S,2R)-2-fluorocyclopropane-1-carbonyl)-2,6-diazaspiro[3.5]nonan-6-yl)-2-((S)-1-((S)-1-methylpyrrolidin-2-yl)ethoxy)quinazolin-7-yl)-7-fluorobenzo[b] thiophene-3-carbonitrile], the IC50 against KRASG12D and at KRASwt was under 5 µM each time.
As to `C[C@H](Oc1nc(N2CCCC3(CN(C(=O)c4ccnn4C)C3)C2)c2cc(Cl)c(-c3ccc(F)c4sc(N)c(C#N)c34)c(F)c2n1)[C@@H]1CCCN1C` [compound 127, 2-amino-4-(6-chloro-8-fluoro-4-(2-(1-methyl-1H-pyrazole-5-carbonyl)-2,6-diazaspiro[3.5]nonan-6-yl)-2-((S)-1-((S)-1-methylpyrrolidin-2-yl)ethoxy)quinazolin-7-yl)-7-fluorobenzo[b]thiophene-3-carbonitrile], the IC50 against KRASG12D and at KRASwt was under 5 µM throughout.
`Nc1nc2c(-c3c(Cl)cc4c(N5CCOC6(CCNCC6)C5)nc(OCC56CCCN5C[C@H](F)C6)nc4c3F)ccc(F)c2s1` (stereo partly drawn) [compound 129, 4-(6-chloro-8-fluoro-2-(((2R)-2-fluorotetrahydro-1H-pyrrolizin-7a(5H)-yl)methoxy)-4-(1-oxa-4,9-diazaspiro[5.5]undecan-4-yl)quinazolin-7-yl)-7-fluorobenzo[d]thiazol-2-amine]: the IC50 against KRASG12D and at KRASwt was under 5 µM throughout.
Consider `Nc1nc2c(-c3c(Cl)cc4c(N5CCCC6(CCNC6)C5)nc(OC[C@@]56CCCN5C[C@H](F)C6)nc4c3F)ccc(F)c2s1` (stereo partly drawn) [compound 130, 4-(6-chloro-8-fluoro-2-(((2R,7aS)-2-fluorotetrahydro-1H-pyrrolizin-7a(5H)-yl)methoxy)-4-(2,7-diazaspiro[4.5]decan-7-yl)quinazolin-7-yl)-7-fluorobenzo[d]thiazol-2-amine], for which the IC50 on KRASG12D and at KRASwt was under 5 µM in each case.
As to `N#Cc1c(N)sc2c(F)ccc(-c3c(Cl)cc4c(N5CCC6(CC5)CN(C(=O)C5CC5(F)F)C6)nc(OC[C@@]56CCCN5C[C@H](F)C6)nc4c3F)c12` (stereo partly drawn) [compound 131, 2-amino-4-(6-chloro-4-(2-(2,2-difluorocyclopropane-1-carbonyl)-2,7-diazaspiro[3.5]nonan-7-yl)-8-fluoro-2-(((2R,7aS)-2-fluorotetrahydro-1H-pyrrolizin-7a(5H)-yl)methoxy)quinazolin-7-yl)-7-fluorobenzo[b]thiophene-3-carbonitrile], the half-inhibitory concentration (IC50) at KRASG12D and at KRASwt was under 5 µM in each case.
For `Cn1nccc1C(=O)N1CC2(CCCCN(c3nc(OC[C@@]45CCCN4C[C@H](F)C5)nc4c(F)c(-c5ccc(F)c6sc(N)c(C#N)c56)c(Cl)cc34)C2)C1` [compound 134, 2-amino-4-(6-chloro-8-fluoro-2-(((2R,7aS)-2-fluorotetrahydro-1H-pyrrolizin-7a(5H)-yl)methoxy)-4-(2-(1-methyl-1H-pyrazole-5-carbonyl)-2,6-diazaspiro[3.6]decan-6-yl)quinazolin-7-yl)-7-fluorobenzo[b]thiophene-3-carbonitrile], the IC50 against KRASG12D and at KRASwt was under 5 µM each time.
For `COCC(=O)N1CC2(CCCN(c3nc(O[C@@H](C)[C@@H]4CCCN4C)nc4c(F)c(-c5ccc(F)c6sc(N)c(C#N)c56)c(Cl)cc34)C2)C1` [compound 138, 2-amino-4-(6-chloro-8-fluoro-4-(2-(2-methoxyacetyl)-2,6-diazaspiro[3.5]nonan-6-yl)-2-((S)-1-((S)-1-methylpyrrolidin-2-yl)ethoxy)quinazolin-7-yl)-7-fluorobenzo[b]thiophene-3-carbonitrile], the IC50 at KRASG12D and against KRASwt was under 5 µM in each case.

These data come from US20240109918A1, “HETEROCYCLIC COMPOUNDS AND USES THEREOF” (Kumquat Biosciences Inc., priority 2022, published 2024).
